Columns and labels:
3HMU = experiment: glycine oxidase assay, TA screening towards HMW amino donors; assay type: biochemical, Ruegeria pomeroyi; set-up: key to TA activity towards amino donor (3HMU): 0: no activity detected; settings: for TA_3HMU activity / acceptance of amino donor, in words: glycine oxidase assay, semiquantitative; for TA activity towards amino donor (3HMU): wildtype (S)-selective TA, 20 mM amino donor (2.5 mM α-MBA), 2.5 mM glyoxylate, CHES pH 9.5, 37° C., absorbance 498 nm
Description: (§1) The HMW amino donors listed in Table 1 were tested in a feasibility study for reaction with TA enzymes (the HMW amino donors being commercially available and relatively cheap). More particularly, in this study the acceptance of HMW amino donors by TA enzymes was investigated running a glycine oxidase assay (as described by WeiB et al. in Anal. Chem. 2014, 86, 11847-11853). Thereto, 25 wild type transaminases were selected from a library of enzymes. Transaminase selection was made on the basis of TAs availability, broad substrate and amino donor scope, and stability.
(§2) Final substrate concentration amounted to 2.5 mM glyoxylate, 20 mM large amino donor, 7.28 U/mL horseradish peroxidase, 0.12 mg/mL purified glycine oxidase, 3 mM 4-amino antipyrine, and 4.7 mM vanillic acid in CHES buffer (100 mM) with pH 9.5, in total reaction volumes of 150 μL. Cells with empty pET28a(+) vector were applied as negative control. A reaction using 2.5 mM α-MBA was applied as positive control.
(§3) The above (photometric) assay is semiquantitative: the increasing absorbance (slope in FIG. 4.1) correlates with enzyme activity. An accurate quantification, however, was difficult to be performed as the assay is a multi-enzyme reaction.
(§4) TA_3HMU was then further tested with three commercially available HMW Jeffamines® (AD 3, 4 and 6).

MycVan = experiment: as above; assay type: biochemical, Mycobacterium vanbaalenii; set-up: key: 0: no activity detected; settings: wildtype TA; 20 mM amino donor (2.5 mM α-MBA), 2.5 mM glyoxylate, CHES pH 9.5, 37° C., absorbance 498 nm
Description: as §1, §2, §3, §4

AspFum = experiment: as above; assay type: biochemical, Aspergillus fumigatus; set-up: key: 0: no activity detected; settings: wildtype (R)- TA; 20 mM amino donor (2.5 mM α-MBA), 2.5 mM glyoxylate, CHES pH 9.5, 37° C., absorbance 498 nm
Description: as §1, §2, §3, §4

TA_3HMU = experiment: asymmetric amine synthesis (transamination) with TA_3HMU; assay type: biochemical, Ruegeria pomeroyi; settings: for BA conversion: crude extract lyophilized TA_3HMU (3 mg/mL), 25 times excess amine donor (250 mM); for product formation from ketosubstrate with HMW amino donors: TA_3HMU, TLC or chiral GC analysis, no equilibrium shifting strategy
Description: Asymmetric synthesis of chiral amines were performed using HMW amino donors and substrates 1a, 1b and 1c in the presence of TA_3HMU enzyme. […] However, performing the transamination reaction using substrates 1a or 1b, followed by a separation of the formed amine product using a membrane unit (8), according to advantageous aspects of the disclosure, will further shift the thermodynamic equilibrium to the product side of the reaction, thereby improving the product purity of the produced amine product.
Asymmetric amine synthesis experiments were performed using freeze-dried crude extract of TA_3HMU, provided by the company Enzymicals (Germany) and using PEG-A and PEG-C as amino donors (the activity of the enzyme being 970 mU/mg, photometric assay based on acetophenone detection). For a first test, a quite high amount of enzyme (12.5 mg/mL freeze dried powder, corresponding to about 6 mg/mL of total protein content) was used. In addition to poly ethylene glycol molecules (PEGs), the common and cheap LMW amino donor IPA was also investigated. Unlike PEGs, which can be retained by a porous (nanofiltration) membrane (3) with appropriate MWCO and/or pore size, the LMW amino donor IPA will also permeate forming the second solution (2).
Asymmetric amine synthesis experiments were also performed using amine transaminases TA_v2, purchased from c-LEcta GmbH, Leipzig, Germany. The purified enzyme was supplied as freeze-dried powder, the activity of TA_v2 being 1.73 U/mg. All reactions were performed in 1 mL volume containing 12.5-0.78 mg/mL of either TA_3HMU or TA_v2 powder, 10-500 mM amine donor (IPA, PEG-A and PEG-C, 10 mM BA model substrate (dissolved in DMSO) and 0.1 mM PLP in 100 mM CHES buffer, pH 9.5. The final DSMO concentration was 5% (v/v). […]
Substrate (BA) and product (MPPA) concentrations were determined by UHPLC (Thermo Scientific™) with UV detection at 194/210 nm. The chromatographic separation was achieved using 1 μL injection onto a C18 reversed-phase column (Waters Acquity UPLC® BEH C18 1.7 μm 2.1×50 mm). The column temperature was kept at 40° C. The gradient elution program is using mobile phase A 0.1% Formic Acid (FA) in Water (dH2O) and mobile phase B 0.1% FA in acetonitrile (ACN). The elution program was as follows: 0-4 min 99-30% A; 4-5 min 30-1% A; 5-5.1 min 1-99% A; 5.1-7.5 min 99% A; all at a flowrate of 400 μL/min. Amine donors AD 3 and AD 6 were analysed by HPLC with ELSD detector on Alltima HP C18 HL 5 μ, 4.6×250 mm. The eluents for PEGs analysis were: A) dH2O, 0.1% FA; B) ACN, 0.1% FA.
Furthermore, tests were conducted using different loadings of freeze-dried crude extract of TA_3HMU. Since the biotransformation could not be observed photometrically, continuous time-dependent following of the enzyme reaction was not possible. Therefore, laborious stopped enzyme assay providing only few measure points had to be employed. As expected, the initial reaction rate decreased when the enzyme loading was reduced. In presence of IPA donor amine, higher conversions were achieved. However, the reaction end-point decreased, reducing the enzyme amount (cf. FIG. 5.2c). […] Experimental conditions in FIG. 5.2: 10 mM BA; 250 mM AD; 0.1 mM PLP; 5% DMSO; 100 mM CHES buffer, pH 9.5, 30° C., 1000 rpm.
As already discussed hereinabove, using IPA as amine donor in transaminase reactions, a very high amount (e.g. 50-100 fold) amine donor excess is required, complicating downstream processing and possibly hampering the stability and activity of TAs (cf. e.g. Slabu, I. et al. in Catal. Today 306, 96-101 (2018); Savile, C. K. et al. in Science 329, 305-9 (2010); Dawood, A. W. H. et al. in ChemCatChem 10, 951-955 (2018)). TA_3HMU stability towards IPA and HMW ADs 3 and 6 was therefore explored. […] In contrast to IPA, in presence of bulky donor amines (cf. FIG. 5.3a and FIG. 5.3b). Experimental conditions in FIG. 5.3: 10 mM BA; 250 mM amine donor (AD 3, AD 6 or IPA); 0.1 mM PLP; 5% DMSO; 100 mM CHES buffer, pH 9.5, 30° C., 1000 rpm. […]

AspOry = experiment: glycine oxidase assay, TA screening towards HMW amino donors; assay type: biochemical, Aspergillus oryzae; set-up: key: 0: no activity detected; settings: wildtype TA; 20 mM amino donor (2.5 mM α-MBA), 2.5 mM glyoxylate, CHES pH 9.5, 37° C., absorbance 498 nm
Description: as §1, §2, §3, §4

Vfl = experiment: as above; assay type: biochemical, Vibrio fluvialis JS17; set-up: key: 0: no activity detected; settings: wildtype TA; 20 mM amino donor (2.5 mM α-MBA), 2.5 mM glyoxylate, CHES pH 9.5, 37° C., absorbance 498 nm
Description: as §1, §2, §3, §4

3FCR = experiment: as above; assay type: biochemical, Ruegeria sp. TM1040; set-up: key: 0: no activity detected; settings: wildtype TA; 20 mM amino donor (2.5 mM α-MBA), 2.5 mM glyoxylate, CHES pH 9.5, 37° C., absorbance 498 nm
Description: as §1, §2, §3, §4

ATA 117 = experiment: as above; assay type: biochemical, Arthrobacter sp.; set-up: key: 0: no activity detected; settings: wildtype TA; 20 mM amino donor (2.5 mM α-MBA), 2.5 mM glyoxylate, CHES pH 9.5, 37° C., absorbance 498 nm
Description: as §1, §2, §3, §4

TA_v2 = assay type: biochemical
Description: Reaction was performed in 600 mL volume containing 2 mg/mL of TA_v2 powder, 250 mM AD 6, 10 mM BA substrate (dissolved in DMSO) and 0.1 mM PLP in 100 mM CHES buffer, pH 9.5. The final DSMO concentration was 5% (v/v). After 16 h of reaction, 550 mL of reaction mixture was transferred into the membrane unit and 2 intermittent nanofiltration tests were performed. The remaining 50 mL of reaction mixture was used as control without filtration. After the first nanofiltration (6 h duration, DESAL® DK, 20 bar), the collected permeate and the retentate were mixed, and 5 mM of additional BA substrate were added. Additional substrate was added also to the control condition. After 16 h of reaction, the second nanofiltration was performed (5 h duration, DuraMem® 200, 20 bar). Reaction permeate and retentate samples were taken after distinct time periods and prepared for quantitative analysis.
Addition of BA (5 mM) was made to the enzymatic tank E-1 after 24 h reaction. The second nanofiltration was run after 39 h reaction (DuraMem® 200 membrane, 20 bar).

[1] = on line nanofiltration (Desal-DK membrane) coupled with enzymatic reaction; assay type: biochemical; settings: after 1.5 h, BA manually diafiltrated (40 mM)
Description: Diafiltration depends on the permeate flow rate since it occurs at the same rate of permeation. Therefore, reaction and permeation rates are to be matched. When solution of high concentrated substrate (BA 200 mM in DMSO) was subjected to diafiltration, BA was accumulating in the enzymatic tank 6 (FIG. 20).
Permeate flux was very low, therefore BA was manually diafiltrated (40 mM). After 1.5 h, 18% BA was converted.

NCCCN1CCN(CCCN)CC1 [AD 2, 1,4-Bis(3-aminopropyl)piperazine]
TA_3HMU activity / acceptance of amino donor, in words (3HMU): high activity | TA activity towards amino donor (MycVan) (MycVan): 0 | TA activity towards amino donor (AspFum) (AspFum): 0

O,O′-bis(2-aminopropyl) polypropylene glycol-block-polyethylene glycol-block-polypropylene glycol [AD 6]
TA_3HMU activity / acceptance of amino donor, in words (3HMU): broadly comparable to those achieved with the positive control | TA_3HMU activity / acceptance of amino donor, in words (3HMU; listed as PEG-C): best acceptance | BA conversion (TA_3HMU; 10 mM BA): 51%

Poly(propylene glycol) bis(2-aminopropyl ether) [AD 3]
TA_3HMU activity / acceptance of amino donor, in words (3HMU): broadly comparable to those achieved with the positive control | TA_3HMU activity / acceptance of amino donor, in words (3HMU; listed as PEG-A): best acceptance | BA conversion (TA_3HMU; 10 mM BA): 45%

CC(C)N [IPA, isopropyl amine, reference compound]
TA_3HMU stability in presence of amine donor (TA_3HMU; 250 mM amine donor (25-fold excess), 10 mM BA, 3.125 mg/mL enzyme, pH 9.5, 30° C.): fast inactivated

NCCNC(=O)CCN(CCC(=O)NCCN)CCN(CCC(=O)NCCN)CCC(=O)NCCN [AD 5]
TA activity towards amino donor (AspOry) (AspOry): 0 | TA activity towards amino donor (3HMU): 0 | TA activity towards amino donor (Vfl) (Vfl): 0 | TA activity towards amino donor (3FCR): 0 | TA activity towards amino donor (MycVan) (MycVan): 0 | TA activity towards amino donor (ATA 117) (ATA 117): 0 | TA activity towards amino donor (AspFum) (AspFum): 0

CC(N)c1ccccc1 (stereo not drawn) [α-MBA, 1-phenylethylamine, reference compound]
TA activity towards amino donor (AspOry) (AspOry): 0 | TA activity towards amino donor (MycVan) (MycVan): 0

CC(=O)CCc1ccccc1 [BA, benzylacetone]
additional BA converted (TA_v2; 16 h after 5 mM substrate addition, NF reaction mixture and control (Reaction_2, Control-Reaction_2)): ~17% | BA further converted (TA_v2; Control-reaction_1, following 6 h, without filtration): 2% | unreacted substrate lost in the permeate stream (TA_v2; Desal-DK): ~58% | additional substrate conversion (TA_v2; NF-1, 6 h nanofiltration, Desal DK, 20 bar): 10% | BA converted (TA_v2; Reaction_1, 16 h, 10 mM BA, 250 mM AD 6, 2 mg/mL TA_v2): ~55% | BA converted [1]: 18% | product formation from ketosubstrate with HMW amino donors (TA_3HMU): qualitatively detected

(highly flexible) poly(ethylene glycol) bis (3-aminopropyl) [AD 7]
TA activity towards amino donor (AspOry) (AspOry): 0 | TA_3HMU activity / acceptance of amino donor, in words (3HMU): high activity | TA activity towards amino donor (Vfl) (Vfl): 0 | TA activity towards amino donor (MycVan) (MycVan): 0 | TA activity towards amino donor (AspFum) (AspFum): 0

CC(N)CCc1ccccc1 (centres unmarked) [1M3P, 1-methyl-3-phenylpropylamine]
additional product formation (TA_v2; NF-2, DuraMem® 200, 20 bar): 15%

CC(=O)c1ccccc1Br [1b, ortho-bromoacetophenone]
product formation from ketosubstrate with HMW amino donors (TA_3HMU): very low product formation

NCCCNCCNCCCN [AD 1, 1,2-bis(3-aminopropylamino)ethane]
TA activity towards amino donor (AspOry) (AspOry): 0 | TA activity towards amino donor (3HMU): 0 | TA activity towards amino donor (Vfl) (Vfl): 0 | TA activity towards amino donor (3FCR): 0 | TA activity towards amino donor (MycVan) (MycVan): 0 | TA activity towards amino donor (ATA 117) (ATA 117): 0 | TA activity towards amino donor (AspFum) (AspFum): 0

CC(=O)c1ccccc1 [1a, acetophenone]
product formation from ketosubstrate with HMW amino donors (TA_3HMU): very low product formation

Reference: patent US11180783B2, “Method for producing chiral amines” (VITO NV, priority 2017, dated 2021)
